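Following 48 hours of exposure in 96-well plates, responses at five concentrations were used to interpolate endpoints linearly. At the GI50, growth is halved. TGI denotes the concentration required for complete inhibition of growth.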
Tests used:
Assay in all cases: growth of human tumour cells (NCI), 48 h
U251 CNS = test system: U251 CNS
OVCAR-5 ovarian = test system: OVCAR-5 ovarian
PC-3 prostate = test system: PC-3 prostate
NCI-H460 lung = test system: NCI-H460 lung
OVCAR-8 ovarian = test system: OVCAR-8 ovarian
HS 578T breast = test system: HS 578T breast
MDA-MB-231 breast = test system: MDA-MB-231 breast
ACHN renal = test system: ACHN renal
CAKI-1 renal = test system: CAKI-1 renal
TK-10 renal = test system: TK-10 renal
HCC-2998 colon = test system: HCC-2998 colon
SNB-75 CNS = test system: SNB-75 CNS
OVCAR-3 ovarian = test system: OVCAR-3 ovarian
SF-268 CNS = test system: SF-268 CNS
A549 NSCLC = test system: A549 NSCLC
SK-MEL-2 melanoma = test system: SK-MEL-2 melanoma
K-562 leukemia = test system: K-562 leukemia
NCI-H226 lung = test system: NCI-H226 lung
HL-60(TB) leukemia = test system: HL-60(TB) leukemia
EKVX NSCLC = test system: EKVX NSCLC
MCF7 breast = test system: MCF7 breast
IGROV1 ovarian = test system: IGROV1 ovarian
SNB-19 CNS = test system: SNB-19 CNS
HCT-116 colon = test system: HCT-116 colon
SK-MEL-28 melanoma = test system: SK-MEL-28 melanoma
NCI/ADR-RES ovarian = test system: NCI/ADR-RES ovarian
SK-OV-3 ovarian = test system: SK-OV-3 ovarian

CCCN(CCC)S(=O)(=O)c1ccc(C(=O)O)cc1.CCCN(CCC)S(=O)(=O)c1ccc(C(=O)O)cc1.[Cl][Pt+2][Cl].[NH2-].[NH2-]
TGI (U251 CNS): > 84.2 µM | GI50 (OVCAR-5 ovarian): 1.44 µM | TGI (OVCAR-5 ovarian): > 100 µM | GI50 (PC-3 prostate): 2.25 µM | TGI (PC-3 prostate): > 100 µM | GI50 (NCI-H460 lung): 0.151 µM | TGI (NCI-H460 lung): > 68.6 µM | GI50 (OVCAR-8 ovarian): 1.4 µM | TGI (OVCAR-8 ovarian): > 100 µM | GI50 (HS 578T breast): 13.9 µM | TGI (HS 578T breast): > 100 µM | GI50 (MDA-MB-231 breast): 3.15 µM | TGI (MDA-MB-231 breast): > 58.3 µM | GI50 (ACHN renal): 0.477 µM | TGI (ACHN renal): > 100 µM | GI50 (CAKI-1 renal): 2.27 µM | TGI (CAKI-1 renal): > 100 µM | GI50 (TK-10 renal): > 100 µM | TGI (TK-10 renal): > 100 µM | GI50 (HCC-2998 colon): 0.926 µM | TGI (HCC-2998 colon): 9.49 µM | GI50 (SNB-75 CNS): 0.666 µM | TGI (SNB-75 CNS): 13.3 µM | GI50 (OVCAR-3 ovarian): 1.07 µM | TGI (OVCAR-3 ovarian): > 27 µM | GI50 (SF-268 CNS): 0.7 µM | TGI (SF-268 CNS): > 100 µM | GI50 (A549 NSCLC): 2.89 µM | TGI (A549 NSCLC): > 100 µM | GI50 (SK-MEL-2 melanoma): 2.03 µM | TGI (SK-MEL-2 melanoma): 5.21 µM | GI50 (K-562 leukemia): 0.179 µM | TGI (K-562 leukemia): > 100 µM | GI50 (NCI-H226 lung): 4.04 µM | TGI (NCI-H226 lung): 99.6 µM | GI50 (HL-60(TB) leukemia): 0.221 µM | TGI (HL-60(TB) leukemia): > 100 µM | GI50 (EKVX NSCLC): 8.4 µM | TGI (EKVX NSCLC): > 100 µM | GI50 (MCF7 breast): 0.149 µM | TGI (MCF7 breast): > 100 µM | GI50 (IGROV1 ovarian): 3.6 µM | TGI (IGROV1 ovarian): 24.2 µM | GI50 (SNB-19 CNS): 1.6 µM | TGI (SNB-19 CNS): 60.5 µM | GI50 (HCT-116 colon): 0.945 µM | TGI (HCT-116 colon): > 52 µM | GI50 (SK-MEL-28 melanoma): 0.733 µM | TGI (SK-MEL-28 melanoma): > 24.1 µM | GI50 (NCI/ADR-RES ovarian): > 100 µM | TGI (NCI/ADR-RES ovarian): > 100 µM | GI50 (SK-OV-3 ovarian): 1.58 µM | TGI (SK-OV-3 ovarian): 22 µM
